Source: US9695155B2, “Herbicidal substituted pyrimidinyloxy benzene compounds” (E. I. DU PONT DE NEMOURS AND COMPANY, priority 2013, dated 2017)

Legend:
kochia [1] = assay: Test E preemergence; format: in vivo, Kochia scoparia; conditions: for Kochia plant response rating: scale 0 to 100 (0 no effect, 100 complete control); for Plant response rating, Kochia: 125 g ai/ha, scale 0 to 100, 0 no effect, 100 complete control
How it was run: (§1)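 Test chemicals formulated in a non-phytotoxic solvent mixture containing a surfactant were applied preemergence to seeds in silt loam soil or postemergence to plants at the 1- to 4-leaf stage in potting mix. After 14 to 21 days in a greenhouse, injury was visually rated against controls on a 0-100 scale (0 = no effect, 100 = complete control).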

Italian ryegrass = assay: Test E preemergence; format: in vivo, Lolium multiflorum; conditions: for Ryegrass, Italian plant response rating: scale 0 to 100 (0 no effect, 100 complete control); for Plant response rating, Ryegrass, Italian: 125 g ai/ha, scale 0 to 100, 0 no effect, 100 complete control
How it was run: as §1

ragweed [2] = assay: Test A postemergence; format: in vivo, Ambrosia elatior; conditions: for Plant response rating, Ragweed: 0 to 100 scale, 0 no effect, 100 complete control
How it was run: (§2)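 Injury scores run from 0, no effect, to 100, complete control, judged by eye against untreated plants roughly 10 days after treatment. Chemicals carried a surfactant in a non-phytotoxic solvent and went onto loam–sand soil preemergence or onto one- to two-leaf seedlings postemergence.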

hairy beggarticks = assay: Test E preemergence; format: in vivo, Bidens pilosa; conditions: preemergence; for Beggarticks plant response rating: scale 0 to 100 (0 no effect, 100 complete control); for Plant response rating, Beggarticks: 125 g ai/ha, scale 0 to 100, 0 no effect, 100 complete control
How it was run: as §1

goosegrass = assay: Test E preemergence; format: in vivo, Eleusine indica; conditions: for Goosegrass plant response rating: scale 0 to 100 (0 no effect, 100 complete control); for Plant response rating, Goosegrass: 125 g ai/ha, scale 0 to 100, 0 no effect, 100 complete control
How it was run: as §1

morningglory = assay: Test E preemergence; format: in vivo, Ipomoea coccinea; conditions: for Morningglory plant response rating: scale 0 to 100 (0 no effect, 100 complete control); for Plant response rating, Morningglory: 125 g ai/ha, scale 0 to 100, 0 no effect, 100 complete control
How it was run: as §1

barnyardgrass = assay: Test E preemergence; format: in vivo, Echinochloa crus-galli; conditions: preemergence; for Barnyardgrass plant response rating: scale 0 to 100 (0 no effect, 100 complete control); for Plant response rating, Barnyardgrass: 125 g ai/ha, scale 0 to 100, 0 no effect, 100 complete control
How it was run: as §1

ragweed [3] = assay: Test E preemergence; format: in vivo, Ambrosia elatior; conditions: for Ragweed plant response rating: scale 0 to 100 (0 no effect, 100 complete control); for Plant response rating, Ragweed: 125 g ai/ha, scale 0 to 100, 0 no effect, 100 complete control
How it was run: as §1

fall panicum = assay: Test E preemergence; format: in vivo, Panicum dichotomiflorum; conditions: for Panicum, Fall plant response rating: scale 0 to 100 (0 no effect, 100 complete control); for Plant response rating, Panicum, Fall: 125 g ai/ha, scale 0 to 100, 0 no effect, 100 complete control
How it was run: as §1

sandbur = assay: Test E preemergence; format: in vivo, Cenchrus echinatus; conditions: for Sandbur plant response rating: scale 0 to 100 (0 no effect, 100 complete control); for Plant response rating, Sandbur: 125 g ai/ha, scale 0 to 100, 0 no effect, 100 complete control
How it was run: as §1

kochia [4] = assay: Test A postemergence; format: in vivo, Kochia scoparia; conditions: for Plant response rating, Kochia: 0 to 100 scale, 0 no effect, 100 complete control
How it was run: as §2

soybean = assay: Test E preemergence; format: in vivo, Glycine max; conditions: for Soybean plant response rating: scale 0 to 100 (0 no effect, 100 complete control); for Plant response rating, Soybean: 125 g ai/ha, scale 0 to 100, 0 no effect, 100 complete control
How it was run: as §1

large (Lg) crabgrass = assay: Test E preemergence; format: in vivo, Digitaria sanguinalis; conditions: for Crabgrass, Large plant response rating: scale 0 to 100 (0 no effect, 100 complete control); for Plant response rating, Crabgrass, Large: 125 g ai/ha, scale 0 to 100, 0 no effect, 100 complete control
How it was run: as §1

nightshade = assay: Test E preemergence; format: in vivo, Solanum ptycanthum; conditions: for Nightshade plant response rating: scale 0 to 100 (0 no effect, 100 complete control); for Plant response rating, Nightshade: 125 g ai/ha, scale 0 to 100, 0 no effect, 100 complete control
How it was run: as §1

giant foxtail = assay: Test E preemergence; format: in vivo, Setaria faberii; conditions: for Foxtail, Giant plant response rating: scale 0 to 100 (0 no effect, 100 complete control); for Plant response rating, Foxtail, Giant: 125 g ai/ha, scale 0 to 100, 0 no effect, 100 complete control
How it was run: as §1

surinam grass = assay: Test E preemergence; format: in vivo, Brachiaria decumbens; conditions: for Surinam Grass plant response rating: scale 0 to 100 (0 no effect, 100 complete control); for Plant response rating, Surinam Grass: 125 g ai/ha, scale 0 to 100, 0 no effect, 100 complete control
How it was run: as §1

[5] = 125 g ai/ha, 0 to 100 scale where 0 is no effect and 100 is complete control

## N#Cc1cnn(-c2c(CF)cccc2Oc2ncc(F)cn2)c1 [Compound 151]
Kochia [1]; 31 g ai/ha
  Kochia plant response rating: 80
Kochia [1]; 62 g ai/ha
  Kochia plant response rating: 90
Kochia [1]
  Plant response rating, Kochia: 100
Italian ryegrass; 31 g ai/ha
  Ryegrass, Italian plant response rating: 10
Italian ryegrass; 62 g ai/ha
  Ryegrass, Italian plant response rating: 10
Italian ryegrass
  Plant response rating, Ryegrass, Italian: 65
Ragweed [2]; 31 g ai/ha
  Plant response rating, Ragweed: 50
Ragweed [2]; [5]
  Ragweed plant response rating: 100
Hairy beggarticks; 16 g ai/ha
  Beggarticks plant response rating: 65
Hairy beggarticks; 31 g ai/ha
  Beggarticks plant response rating: 65
Hairy beggarticks; 62 g ai/ha
  Beggarticks plant response rating: 95
Hairy beggarticks
  Plant response rating, Beggarticks: 100
goosegrass; 31 g ai/ha
  Goosegrass plant response rating: 0
goosegrass; 62 g ai/ha
  Goosegrass plant response rating: 70
goosegrass
  Plant response rating, Goosegrass: 85
morningglory; 31 g ai/ha
  Morningglory plant response rating: 0
morningglory; 62 g ai/ha
  Morningglory plant response rating: 0
morningglory
  Plant response rating, Morningglory: 0
barnyardgrass; 16 g ai/ha
  Barnyardgrass plant response rating: 0
barnyardgrass; 31 g ai/ha
  Barnyardgrass plant response rating: 20
barnyardgrass; 62 g ai/ha
  Barnyardgrass plant response rating: 10
barnyardgrass
  Plant response rating, Barnyardgrass: 75
Ragweed [3]; 31 g ai/ha
  Ragweed plant response rating: 90
Ragweed [3]; 62 g ai/ha
  Ragweed plant response rating: 95
Ragweed [3]
  Plant response rating, Ragweed: 100
Fall panicum; 31 g ai/ha
  Panicum, Fall plant response rating: 60
Fall panicum; 62 g ai/ha
  Panicum, Fall plant response rating: 100
Fall panicum
  Plant response rating, Panicum, Fall: 98
sandbur; 31 g ai/ha
  Sandbur plant response rating: 0
sandbur; 62 g ai/ha
  Sandbur plant response rating: 0
sandbur
  Plant response rating, Sandbur: 35
Kochia [4]; 31 g ai/ha
  Plant response rating, Kochia: 60
Kochia [4]; [5]
  Kochia plant response rating: 90
soybean; 31 g ai/ha
  Soybean plant response rating: 30
soybean
  Plant response rating, Soybean: 75
Large (Lg) crabgrass; 16 g ai/ha
  Crabgrass, Large plant response rating: 0
Large (Lg) crabgrass; 31 g ai/ha
  Crabgrass, Large plant response rating: 5
Large (Lg) crabgrass; 62 g ai/ha
  Crabgrass, Large plant response rating: 60
Large (Lg) crabgrass
  Plant response rating, Crabgrass, Large: 100
nightshade; 31 g ai/ha
  Nightshade plant response rating: 30
nightshade; 62 g ai/ha
  Nightshade plant response rating: 75
nightshade
  Plant response rating, Nightshade: 90
Giant foxtail; 16 g ai/ha
  Foxtail, Giant plant response rating: 0
Giant foxtail; 31 g ai/ha
  Foxtail, Giant plant response rating: 25
Giant foxtail; 62 g ai/ha
  Foxtail, Giant plant response rating: 60
Giant foxtail
  Plant response rating, Foxtail, Giant: 95
Surinam grass; 31 g ai/ha
  Surinam Grass plant response rating: 0
Surinam grass; 62 g ai/ha
  Surinam Grass plant response rating: 35
Surinam grass
  Plant response rating, Surinam Grass: 100

## FCc1cccc(Oc2ncc(Cl)cn2)c1-n1cc(Cl)cn1 [Compound 250]
Kochia [1]; 31 g ai/ha
  Kochia plant response rating: 0
Kochia [1]; 62 g ai/ha
  Kochia plant response rating: 0
Kochia [1]
  Plant response rating, Kochia: 98
Italian ryegrass; 31 g ai/ha
  Ryegrass, Italian plant response rating: 0
Italian ryegrass; 62 g ai/ha
  Ryegrass, Italian plant response rating: 0
Italian ryegrass
  Plant response rating, Ryegrass, Italian: 0
Ragweed [2]; 31 g ai/ha
  Plant response rating, Ragweed: 50
Ragweed [2]; 125 g ai/ha
  Plant response rating, Ragweed: 100
Hairy beggarticks; 16 g ai/ha
  Beggarticks plant response rating: 0
Hairy beggarticks; 31 g ai/ha
  Beggarticks plant response rating: 0
Hairy beggarticks; 62 g ai/ha
  Beggarticks plant response rating: 0
Hairy beggarticks
  Plant response rating, Beggarticks: 20
goosegrass; 31 g ai/ha
  Goosegrass plant response rating: 0
goosegrass; 62 g ai/ha
  Goosegrass plant response rating: 0
goosegrass
  Plant response rating, Goosegrass: 65
morningglory; 31 g ai/ha
  Morningglory plant response rating: 0
morningglory; 62 g ai/ha
  Morningglory plant response rating: 0
morningglory
  Plant response rating, Morningglory: 20
barnyardgrass; 16 g ai/ha
  Barnyardgrass plant response rating: 0
barnyardgrass; 31 g ai/ha
  Barnyardgrass plant response rating: 0
barnyardgrass; 62 g ai/ha
  Barnyardgrass plant response rating: 0
barnyardgrass
  Plant response rating, Barnyardgrass: 25
Ragweed [3]; 31 g ai/ha
  Ragweed plant response rating: 0
Ragweed [3]; 62 g ai/ha
  Ragweed plant response rating: 0
Ragweed [3]
  Plant response rating, Ragweed: 0
Fall panicum; 31 g ai/ha
  Panicum, Fall plant response rating: 0
Fall panicum; 62 g ai/ha
  Panicum, Fall plant response rating: 0
Fall panicum
  Plant response rating, Panicum, Fall: 100
sandbur; 31 g ai/ha
  Sandbur plant response rating: 0
sandbur; 62 g ai/ha
  Sandbur plant response rating: 0
sandbur
  Plant response rating, Sandbur: 25
Kochia [4]; 31 g ai/ha
  Plant response rating, Kochia: 60
Kochia [4]; 125 g ai/ha
  Plant response rating, Kochia: 90
soybean; 31 g ai/ha
  Soybean plant response rating: 0
soybean; 62 g ai/ha
  Soybean plant response rating: 15
soybean
  Plant response rating, Soybean: 65
Large (Lg) crabgrass; 16 g ai/ha
  Crabgrass, Large plant response rating: 0
Large (Lg) crabgrass; 31 g ai/ha
  Crabgrass, Large plant response rating: 0
Large (Lg) crabgrass; 62 g ai/ha
  Crabgrass, Large plant response rating: 0
Large (Lg) crabgrass
  Plant response rating, Crabgrass, Large: 100
nightshade; 31 g ai/ha
  Nightshade plant response rating: 0
nightshade; 62 g ai/ha
  Nightshade plant response rating: 35
nightshade
  Plant response rating, Nightshade: 98
Giant foxtail; 16 g ai/ha
  Foxtail, Giant plant response rating: 0
Giant foxtail; 31 g ai/ha
  Foxtail, Giant plant response rating: 0
Giant foxtail; 62 g ai/ha
  Foxtail, Giant plant response rating: 15
Giant foxtail
  Plant response rating, Foxtail, Giant: 98
Surinam grass; 31 g ai/ha
  Surinam Grass plant response rating: 0
Surinam grass; 62 g ai/ha
  Surinam Grass plant response rating: 0
Surinam grass
  Plant response rating, Surinam Grass: 0
